Drawing on ChEMBL document CHEMBL1138534, “Cellular effects of reversed amidines on Trypanosoma cruzi” (Antimicrob Agents Chemother, 2007), this text covers Activity and IC50 for four compounds.

SMILES strings stand for the structures. The source made the active and inactive calls. No cut-off for these calls is given here.

For test [1], the system named is Trypanosoma cruzi. Put plainly: Antitrypanosomal activity against Trypanosoma cruzi Y amastigotes assessed as disorganization of kinetoplast at IC50 after 24 hrs by transmission electron microscopy. In kind it is functional, organism-based.
Test [2] has as its system Trypanosoma cruzi. Put plainly: Antitrypanosomal activity against Trypanosoma cruzi Y bloodstream trypomastigotes assessed as alteration in nuclear morphology after 24 hrs by transmission electron micrograph. Format: functional, organism-based.
The test system of test [3] is Trypanosoma cruzi. Put plainly: Antitrypanosomal activity against Trypanosoma cruzi Y bloodstream trypomastigotes assessed as microtubule axoneme structure after 24 hrs by transmission electron micrograph. Format: functional, organism-based.
Test [4] has as its system Trypanosoma cruzi. Put plainly: Antitrypanosomal activity against Trypanosoma cruzi Y bloodstream trypomastigotes after 24 hrs by light microscope. In kind it is functional, organism-based.
Test [5] has as its system Trypanosoma cruzi. Put plainly: Antitrypanosomal activity against Trypanosoma cruzi Y bloodstream trypomastigotes at 1.18 uM after 2 hrs by light microscope. Format: functional.
The test system of test [6] is Trypanosoma cruzi. Put plainly: Antitrypanosomal activity against Trypanosoma cruzi Y bloodstream trypomastigotes assessed as parasite death at 3.5 uM after 24 hrs by light microscope. In kind it is functional.
Test [7] deals with Trypanosoma cruzi. Description: Antitrypanosomal activity against Trypanosoma cruzi Y amastigotes assessed as intense vesicular profile in flageller pocket at IC50 after 24 hrs by transmission electron microscopy. In kind it is functional, organism-based.
Test [8] deals with Trypanosoma cruzi. Description: Antitrypanosomal activity against Trypanosoma cruzi Y bloodstream trypomastigotes assessed as swelling in mitochondria and kinetoplast after 24 hrs by transmission electron micrograph. In kind it is functional, organism-based.
The test system of test [9] is Trypanosoma cruzi. Put plainly: Antitrypanosomal activity against Trypanosoma cruzi Y amastigotes assessed as alteration in nuclear morphology at IC50 after 24 hrs by transmission electron microscopy. Format: functional, organism-based.
Test [10] concerns Trypanosoma cruzi. Description: Antitrypanosomal activity against Trypanosoma cruzi Y amastigotes assessed as vacuolization and loss of cytoplasm components at IC50 after 24 hrs by transmission electron microscopy. Format: functional, organism-based.
Test [11] deals with Trypanosoma cruzi. Put plainly: Antitrypanosomal activity against Trypanosoma cruzi Y bloodstream trypomastigotes assessed as reduction in mitochondrial membrane potential at IC50 after 24 hrs by flow cytometry. In kind it is functional. The arrangement: scale not given: the % may be the effect or the level left.
Test [12] relates to Trypanosoma cruzi. Put plainly: Antitrypanosomal activity against Trypanosoma cruzi Y bloodstream trypomastigotes assessed as parasite lysis at 3.5 uM after 24 hrs by light microscope. Format: functional.
The test system of test [13] is Trypanosoma cruzi. Description: Antitrypanosomal activity against Trypanosoma cruzi Y amastigotes after 24 hrs by light microscope. In kind it is functional, organism-based.
In test [14] the test system is Trypanosoma cruzi. Description: Antitrypanosomal activity against Trypanosoma cruzi Y bloodstream trypomastigotes assessed as parasite death at 0.014 uM after 24 hrs by light microscope. In kind it is functional.
Test [15] relates to Trypanosoma cruzi. Description: Antitrypanosomal activity against Trypanosoma cruzi Y amastigotes assessed as disorganization of subpellicular mitochondria at IC50 after 24 hrs by transmission electron microscopy. Format: functional, organism-based.
Test [16] has as its system Trypanosoma cruzi. Description: Antitrypanosomal activity against Trypanosoma cruzi Y amastigotes assessed as swelling and electrodense mitochondria at IC50 after 24 hrs by transmission electron microscopy. In kind it is functional, organism-based.
Test [17] deals with Trypanosoma cruzi. Description: Antitrypanosomal activity against Trypanosoma cruzi Y bloodstream trypomastigotes assessed as intracellular dilated membrane profile after 24 hrs by transmission electron micrograph. Format: functional, organism-based.
The subject of test [18] is Trypanosoma cruzi. Description: Antitrypanosomal activity against Trypanosoma cruzi Y bloodstream trypomastigotes assessed as parasite death at 32 uM after 24 hrs by light microscope. In kind it is functional.
Test [19] concerns Trypanosoma cruzi. Put plainly: Antitrypanosomal activity against Trypanosoma cruzi Y bloodstream trypomastigotes assessed as alteration in microtubule organization after 24 hrs by transmission electron micrograph. Format: functional, organism-based.
The subject of test [20] is Trypanosoma cruzi. Put plainly: Antitrypanosomal activity against Trypanosoma cruzi Y bloodstream trypomastigotes assessed as alteration in mitochondria-kinetoplast complex after 24 hrs by transmission electron micrograph. Format: functional, organism-based.
Test [21] deals with Trypanosoma cruzi. Put plainly: Antitrypanosomal activity against Trypanosoma cruzi Y bloodstream trypomastigotes assessed as parasite death at 32 uM after 2 hrs by light microscope. In kind it is functional.

For the compound `N=C(Nc1ccc(-c2cc(-c3ccccc3)c(-c3ccc(NC(=N)c4ccccn4)cc3)o2)cc1)c1ccccn1`, the result with Trypanosoma cruzi [1], in the test with Trypanosoma cruzi [2], with Trypanosoma cruzi [3], in the test with Trypanosoma cruzi [7], in the test on Trypanosoma cruzi [8] and with Trypanosoma cruzi [9] was Active. Moreover, the outcome in the test on Trypanosoma cruzi [10] and in the test with Trypanosoma cruzi [12] was Active. Also, the IC50 is 0.09 µM in the test on Trypanosoma cruzi [4] and 0.0086 µM in the test with Trypanosoma cruzi [13]. For the same compound, the results for the Activity in the test on Trypanosoma cruzi [5], in the test with Trypanosoma cruzi [6] and with Trypanosoma cruzi [11] were 55%, 100% and 59%, respectively.
Regarding `Cc1ccc(C(=N)Nc2ccc(-c3ccc(-c4ccc(NC(=N)c5ccc(C)cn5)cc4OC(C)C)o3)c(OC(C)C)c2)nc1`, the IC50 in the test on Trypanosoma cruzi [4] was determined as 0.015 µM; with Trypanosoma cruzi [13] it was 1.14 µM. Also, the Activity in the test on Trypanosoma cruzi [6] is 95%; in the test on Trypanosoma cruzi [14], 49%; in the test on Trypanosoma cruzi [11], 55%; in the test with Trypanosoma cruzi [12] it was 50%. Also, the result with Trypanosoma cruzi [15] was Active.
With `Cc1cc(NC(=N)c2ccccn2)ccc1-c1ccc(-c2ccc(NC(=N)c3ccccn3)cc2C)o1`, the IC50 came to 0.45 µM with Trypanosoma cruzi [4] and 0.24 µM in the test on Trypanosoma cruzi [13]. Further, the results for the Activity with Trypanosoma cruzi [6], with Trypanosoma cruzi [11] and in the test on Trypanosoma cruzi [12] were 95%, 54% and 55%, respectively. Further, the result with Trypanosoma cruzi [7] and in the test with Trypanosoma cruzi [16] was Active.
Regarding `COc1cc(NC(=N)N)ccc1-c1ccc(-c2ccc(NC(=N)N)cc2OC)o1`, the result in the test with Trypanosoma cruzi [17], with Trypanosoma cruzi [3], with Trypanosoma cruzi [19], with Trypanosoma cruzi [20] and in the test on Trypanosoma cruzi [8] was Active. The Activity in the test with Trypanosoma cruzi [18] is recorded as 84%; with Trypanosoma cruzi [21], 23%. Moreover, the IC50 with Trypanosoma cruzi [4] was 19.4 µM; with Trypanosoma cruzi [13] it was above 10.6 µM. Also, the result in the test with Trypanosoma cruzi [11] was inactive.
